From patent US20250230155A1 (Vanderbilt University, priority 2021, published 2025)

Molecular target: T1, human mAChR M4 (Homo sapiens, UniProt P08173)
T1 construct: expressed in transfected cells
T1 sequence (P08173 1-479): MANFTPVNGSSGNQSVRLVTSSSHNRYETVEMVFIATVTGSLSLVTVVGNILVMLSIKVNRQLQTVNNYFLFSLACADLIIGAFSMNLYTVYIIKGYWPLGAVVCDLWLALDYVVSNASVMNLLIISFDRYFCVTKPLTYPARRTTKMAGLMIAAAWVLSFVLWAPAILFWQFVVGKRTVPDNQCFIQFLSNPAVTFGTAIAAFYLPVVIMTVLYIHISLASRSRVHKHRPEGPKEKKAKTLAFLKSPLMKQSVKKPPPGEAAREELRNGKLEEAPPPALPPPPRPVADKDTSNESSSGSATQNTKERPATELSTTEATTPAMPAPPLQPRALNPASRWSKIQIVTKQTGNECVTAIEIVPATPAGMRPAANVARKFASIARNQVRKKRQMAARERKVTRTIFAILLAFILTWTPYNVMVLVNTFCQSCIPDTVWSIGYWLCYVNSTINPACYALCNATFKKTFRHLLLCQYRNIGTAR
Assay: mAChR M4 cell-based functional assay (calcium mobilization, CHO-K1 hM4-Gqi5 cells)
Conditions: for Emax at 30 µM: CHO-K1, % ACh maximum at 30 μM, human M4; for EC50: positive allosteric modulator activity, increase in the EC20 acetylcholine response, CHO-K1 hM4-Gqi5 cells, read-out: Human M4 EC50
Method in brief: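 CHO-K1 cells stably expressing human M4 with chimeric Gqi5, loaded with Fluo-4 AM; compounds given as 11-point 1:3 curves and calcium flux read on FDSS at 1 Hz. Acetylcholine EC20 added at 144 s, EC80 at 230 s; agonist, PAM (EC20 potentiation) and antagonist (EC80 inhibition) EC50/Emax from four-parameter fits.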

| Emax at 30 µM | EC50 | SMILES | Emax (CHO-K1) |
| --- | --- | --- | --- |
| 115% | 116 nM | [2H]C1([2H])N(c2cnc3c(c2)CN(c2nnc(C#N)cc2C)CC3)c2ccnn2C([2H])([2H])C1([2H])[2H] [Example 416, 6-(3-(6,7-dihydropyrazolo[1,5-a]pyrimidin-4(5H)-yl-5,5,6,6,7,7-d6)-7,8-dihydro-1,6-naphthyridin-6(5H)-yl)-5-methylpyridazine-3-carbonitrile] | – |
| 78% | 539 nM | Cc1c(C#N)nnc(N2CCc3ncc(Nc4nc(Cl)ncc4F)cc3C2)c1C [compound 81, 6-[3-[(2-chloro-5-fluoro-pyrimidin-4-yl)amino]-7,8-dihydro-5H-1,6-naphthyridin-6-yl]-4,5-dimethyl-pyridazine-3-carbonitrile] | – |
| 95% | 19 nM | Cc1cc(C(=O)N2Cc3ccncc3C2)nnc1N1CCc2ncc(N3CCCn4nccc43)cc2C1 [Example 512, (1,3-dihydro-2H-pyrrolo[3,4-c]pyridin-2-yl)(6-(3-(6,7-dihydropyrazolo[1,5-a]pyrimidin-4(5H)-yl)-7,8-dihydro-1,6-naphthyridin-6(5H)-yl)-5-methylpyridazin-3-yl)methanone] | – |
| 72% | 901 nM | Cc1cc(C#N)nnc1N1Cc2cc(N3CCOCC3)cnc2C(C)C1 (centres unmarked) [Example 404, 5-methyl-6-(8-methyl-3-morpholino-7,8-dihydro-1,6-naphthyridin-6(5H)-yl)pyridazine-3-carbonitrile] | – |
| 86% | 163 nM | Cc1c(C#N)nnc(N2CCc3ncc(-c4ccns4)cc3C2)c1C [compound 292, 6-(3-(isothiazol-5-yl)-7,8-dihydro-1,6-naphthyridin-6(5H)-yl)-4,5-dimethylpyridazine-3-carbonitrile] | – |
| 78% | 200 nM | Cc1cc(C(=O)N2CC(C)(F)C2)nnc1N1CCc2ncc(-n3cccn3)cc2C1 [Example 569, (6-(3-(1H-pyrazol-1-yl)-7,8-dihydro-1,6-naphthyridin-6(5H)-yl)-5-methylpyridazin-3-yl)(3-fluoro-3-methylazetidin-1-yl)methanone] | – |
| 114% | 47 nM | Cc1cc(C(=O)NC2(c3ccccn3)CC2)nnc1N1CCc2ncc(N3CCCn4nccc43)cc2C1 [Example 543, 6-(3-(6,7-dihydropyrazolo[1,5-a]pyrimidin-4(5H)-yl)-7,8-dihydro-1,6-naphthyridin-6(5H)-yl)-5-methyl-N-(1-(pyridin-2-yl)cyclopropyl)pyridazine-3-carboxamide] | – |
| 47% | 961 nM | CCCCn1nc(C)cc1Nc1cnc2c(c1)CN(c1ncc(C#N)cc1C)CC2 [Example 315, 6-(3-((1-butyl-3-methyl-1H-pyrazol-5-yl)amino)-7,8-dihydro-1,6-naphthyridin-6(5H)-yl)-5-methylnicotinonitrile] | – |
| 76% | 195 nM | Cc1ccncc1-c1cnc2c(c1)CN(c1nnc(C#N)c(C)c1C)CC2 [compound 55, 4,5-dimethyl-6-[3-(4-methyl-3-pyridyl)-7,8-dihydro-5H-1,6-naphthyridin-6-yl]pyridazine-3-carbonitrile] | – |
| 75% | 161 nM | Cc1cc(C(=O)N2CC(F)C2)nnc1N1CCc2ncc(-n3cccn3)cc2C1 [Example 568, (6-(3-(1H-pyrazol-1-yl)-7,8-dihydro-1,6-naphthyridin-6(5H)-yl)-5-methylpyridazin-3-yl)(3-fluoroazetidin-1-yl)methanone] | – |
| 77% | 275 nM | Cc1nc(C)c(C)c(N2CCc3ncc(Oc4ccc(F)cc4F)cc3C2)n1 [compound 262, 3-(2,4-difluorophenoxy)-6-(2,5,6-trimethylpyrimidin-4-yl)-5,6,7,8-tetrahydro-1,6-naphthyridine] | – |
| 85% | 354 nM | Cc1ncc(-c2cnc3c(c2)CN(c2nnc(C#N)c(C)c2C)CC3)s1 [compound 293, 4,5-dimethyl-6-(3-(2-methylthiazol-5-yl)-7,8-dihydro-1,6-naphthyridin-6(5H)-yl)pyridazine-3-carbonitrile] | – |

The remaining lines, values behind:

| SMILES | Emax at 30 µM | EC50 | Emax (CHO-K1) |
| --- | --- | --- | --- |
| Cc1cc(C(=O)N2CC3(COC3)C2)nnc1N1CCc2ncc(Nc3ccnn3C)cc2C1 [Example 561, (5-methyl-6-(3-((1-methyl-1H-pyrazol-5-yl)amino)-7,8-dihydro-1,6-naphthyridin-6(5H)-yl)pyridazin-3-yl)(2-oxa-6-azaspiro[3.3]heptan-6-yl)methanone] | 82% | 169 nM | – |
| Cc1c(C#N)nnc(N2CCc3ncc(Nc4ccccc4OC(F)(F)F)cc3C2)c1C [compound 44, 4,5-dimethyl-6-[3-[2-(trifluoromethoxy)anilino]-7,8-dihydro-5H-1,6-naphthyridin-6-yl]pyridazine-3-carbonitrile] | 40% | 1880 nM | – |
| Cc1cc(C(=O)N2CC(F)(F)C2)nnc1N1CCc2ncc(N3CCO[C@H](C)C3)cc2C1 [Example 539, (R)-(3,3-difluoroazetidin-1-yl)(5-methyl-6-(3-(2-methylmorpholino)-7,8-dihydro-1,6-naphthyridin-6(5H)-yl)pyridazin-3-yl)methanone] | 101% | 51 nM | – |
| Cc1cc(C#N)cnc1N1CCc2ncc(OCCCOc3ccccc3)cc2C1 [Example 432, 5-methyl-6-(3-(3-phenoxypropoxy)-7,8-dihydro-1,6-naphthyridin-6(5H)-yl)nicotinonitrile] | 48% | 6800 nM | – |
| CNC(=O)c1cnc(N2CCc3ncccc3C2)c(C)c1 [compound 57, 6-(7,8-dihydro-5H-1,6-naphthyridin-6-yl)-N,5-dimethyl-pyridine-3-carboxamide] | – | ≥ 10000 nM | 63% |
| Cc1cc(C(=O)N2CC3(C2)CC(F)(F)C3)nnc1N1CCc2ncc(-n3cccn3)cc2C1 [Example 570, (6-(3-(1H-pyrazol-1-yl)-7,8-dihydro-1,6-naphthyridin-6(5H)-yl)-5-methylpyridazin-3-yl)(6,6-difluoro-2-azaspiro[3.3]heptan-2-yl)methanone] | 84% | 340 nM | – |
| [2H]C1([2H])N(c2cnc3c(c2)CN(c2ncc(C#N)cc2C)CC3)c2ccnn2C([2H])([2H])C1([2H])[2H] [Example 417, 6-(3-(6,7-dihydropyrazolo[1,5-a]pyrimidin-4(5H)-yl-5,5,6,6,7,7-d6)-7,8-dihydro-1,6-naphthyridin-6(5H)-yl)-5-methylnicotinonitrile] | 110% | 24 nM | – |
| Cc1nc(C(F)(F)F)nc(N2CCc3ncc(N4CCCn5nccc54)cc3C2)c1C [compound 258, 3-(6,7-dihydropyrazolo[1,5-a]pyrimidin-4(5H)-yl)-6-(5,6-dimethyl-2-(trifluoromethyl)pyrimidin-4-yl)-5,6,7,8-tetrahydro-1,6-naphthyridine] | 79% | 69 nM | – |
| Cc1cc(C(=O)NCc2cnc(Cl)s2)cnc1N1CCc2ncccc2C1 [compound 134, N-[(2-chlorothiazol-5-yl)methyl]-6-(7,8-dihydro-5H-1,6-naphthyridin-6-yl)-5-methyl-pyridine-3-carboxamide] | 69% | 1640 nM | – |
| Cc1c(C#N)nnc(N2CCc3ncc(Nc4ccncc4F)cc3C2)c1C [Example 613, 6-(3-((3-fluoropyridin-4-yl)amino)-7,8-dihydro-1,6-naphthyridin-6(5H)-yl)-4,5-dimethylpyridazine-3-carbonitrile] | 97% | 3 nM | – |
